Laboratory results reported in patent US10196454B2, “Anti-PMEL17 antibodies and immunoconjugates” (GENENTECH, INC., priority 2012, dated 2019).
Like-named read-outs stand apart in the source and are kept apart here.

How the values were obtained:
[1] = tested on: parental UACC-257X2.2 cells; assay: In vitro cell proliferation (CellTiter-Glo, five days); format: cell-based; settings: parental line
Method: (§1) In vitro cell proliferation of the cell lines in the presence of the immunoconjugates was assessed. Cells were plated at 1,500 cells per well in 50 μL of normal growth medium in 96-well clear-bottom plates. Twenty-four hours later, an additional 50 μL of culture medium with serial dilutions of immunoconjugates were added to triplicate wells. Five days later, cell survival was determined using CellTiter-Glo Luminescent Cell Viability Reagent (G7572, Promega Corporation, Madison, Wis.) using an EnVision 2101 Mutilabel Reader (Perkin-Elmer, Waltham, Mass.).

[2] = tested on: in vivo derived resistant UACC-257X2.2 cells; assay: as above; format: cell-based; settings: in vivo derived resistant line
Method: Tumor #359 was harvested and the cells were dissociated for growth in vitro (referred to herein as in vivo-derived resistant UACC-257X2.2 cells).
as §1

[3] = tested on: in vitro derived resistant UACC-257X2.2 cells; assay: as above; format: cell-based; settings: in vitro derived resistant line
Method: For resistance developed in vitro, UACC-257X2.2 cells were adapted to increasing concentrations of anti-ETBR-vc-MMAE in culture dishes over the course of two months.
as §1

[4] = tested on: human PMEL17; assay: Monoclonal antibody epitope mapping with PMEL17 deletion mutants (immunoblot, FACS); format: binding; settings: N-terminal deletions by immunoblot; C-terminal deletions in 293 cells by FACS
Method: All the constructs for epitope mapping were made by PCR amplification of each fragment and subcloning into either pRKtkneo vector with an N-terminal gD tag, or pRKtkneo vector with an N-terminal gD tag and a C-terminal GPI anchor. Transfections were performed using FuGene 6 (Roche Applied Science), and empty vector was used as control. Full-length human PMEL17 was subcloned into pRKtkneo vector with an N-terminal gD tag.
A signal sequence and a gD epitope tag were fused to the N-terminal sequence of a series of deletion mutants, which were then expressed in mammalian cells and the lysates analyzed by immuoblotting for reactivity with 17A9 or 77E6. The N-terminal deletions tested included Δ100, Δ255, Δ292, Δ315, Δ444, Δ515, and Δ567.
In addition, C-terminal deletions with an N-terminal gD tag and a C-terminal GPI anchor were transiently transfected into 293 cells and analyzed for antibody binding by FACS. The C-terminal deletions tested included PMEL1725-125, PMEL1725-105, PMEL1725-85, PMEL1725-65, and PMEL1725-45. Finally, a PMEL17 fragment comprising the region from amino acid 515 through the transmembrane domain, but lacking the cytoplasmic region (“Δ515-C”) and a PMEL17 fragment comprising just the cytoplasmic domain with an N-terminal gD tag and a C-terminal GPI anchor were analyzed by immuoblotting for reactivity with 77E6.

[5] = tested on: PC3 cells stably expressing PMEL17; assay: Inhibition of in vitro cell proliferation (CellTiter-GloII); format: cell-based
Method: Proliferation in the presence of 17A9 ADC was assessed using PMEL17+ melanoma cells and PC3 cells stably expressing PMEL17 plated at 2,000 per well in 50 μL of normal growth medium in 96-well clear-bottom plates (PerkinElmer). Twenty-four hours later, an additional 50 μL of culture medium with serial dilutions of 17A9 ADC were added to triplicate wells. Three or five days later, cell numbers were determined using CellTiter-GloII (Promega Corp.) and with an EnVision 2101 Mutilabel Reader (PerkinElmer).

[6] = tested on: vector control PC3 parental cell line; assay: as above; format: cell-based; settings: out to 10 μg/ml of ADC
[7] = tested on: normal human melanocytes; assay: Toxicity of anti-PMEL17 ADC in normal melanocytes (CellTiter-GloII, five days); format: cell-based; settings: versus SK-MEL-5 and SK-MEL-23, five days
Method: Finally, SK-MEL-5 and SK-MEL-23 melanoma cells, or normal human melanocytes, were incubated with serial dilutions of the 17A9 ADC and five days later cell numbers were determined using CellTiter-GloII.

[8] = tested on: SK-MEL-23 melanoma cell line xenograft; assay: SK-MEL-23 melanoma cell line xenograft; format: in vivo, mice; settings: single IV injection, 6 mg/kg
Method: The efficacy of the anti-PMEL17 ADCs was investigated using an SK-MEL-23 melanoma cell line xenograft model. Female CRL Nu/Nu mice from Charles River Laboratories were inoculated subcutaneously in the dorsal right flank with five million SK-MEL-23 cells in HBSS with Matrigel. […] When tumor volumes reached ˜200 mm^3 (day 0), animals were randomized into groups of 10 each and administered a single IV injection of 2 or 6 mg/kg 17A9 ADC. MMAE conjugated to anti-GP120 antibody was used as a control. Tumor volumes were measured twice per week until study end. Tumor volumes were determined using digital calipers (Fred V. Fowler Company, Inc.) using the formula (L×w×W)/2. Tumor growth inhibition (% TGI) was calculated as the percentage of the area under the fitted curve (AUC) for the respective dose group per day in relation to the vehicle, such that % TGI=100×[1−(AUCtreatment/day)/(AUCvehicle/day)]. Curve fitting was applied to Loge transformed individual tumor volume data using a linear mixed-effects model using the R package nlme, version 3.1-96 in R v2.10.1.

[9] = linker-drug without antibody, read-out: EC50

Row | Molecule | EC50 [1, 9] [nM] | EC50 [2, 9] [nM] | EC50 [3, 9] [nM] | further results
1 | MC-PNU-159682 | 0.18 | 0.133 | 0.15 | 
2 | MC-vc-PAB-MMAE | 0.28 | 0.77 | 3.5 | 
3 | MC-vc-PAB-PNU-159682 | 2 | 4.2 | 6.6 | 
4 | 14C10: anti-PMEL17 antibody that binds to the same deletion fragments as 17A9 (antibody, V domains shown) VH: QVTLKESGPGILQPSQTLSLTCSFSGFSLSTSAMGIGWIRQPSGKGLEWLAHIWWDDDKRYNPALKSRLTISKDTSRNQVFLKIASVDTADTATYFCARIDGIYDGSFYAMDYWGQGTSVTVSS VL: DIVLTQSPASLAVSLGQRATISCRASESVDSYGNSFMHWYQQKPGQPPKLLIYRASNLESGIPARFSGSGSRTDFTLTINPVEADDVANYYCQQSNEDYTFGGGTKLEIK |  |  |  | binding to PMEL17 deletion mutants [4]: binds to the same deletion fragments as 17A9
5 | 17A9 ADC (conjugate) VH: EVQLQQSGPELVKPGASMKISCKSSGYSFTRYTMNWVKQSHGKNLEWIGVINPYNGGTVYNQKFKGKATLTVDKSSSTAYMELLSLTSEDSAVYYCARTDYDGYAMDYWGQGTSVTVSS VL: DVQITQSPSYLAASPGETITINCRATKSISKYLAWYQEQPGKTNNLLIYSGSTLQSGIPSRFSGSGSGTDFTLTISSLEPEDFAMYYCQQHNEYPYTFGSGTKLEIK |  |  |  | cell killing [5]: effectively killed; cell killing [6]: no killing; IC50 on normal melanocytes relative to melanoma cell lines [7]: ~100 fold; effect on tumor growth [8]: retard tumor growth for several weeks
6 | anti-PMEL17-vc-MMAE: anti-PMEL17 ADC with protease-cleavable val-cit linker and MMAE (17A9 or ch17A9 with MC-vc-PAB-MMAE) (conjugate) VH: EVQLQQSGPELVKPGASMKISCKSSGYSFTRYTMNWVKQSHGKNLEWIGVINPYNGGTVYNQKFKGKATLTVDKSSSTAYMELLSLTSEDSAVYYCARTDYDGYAMDYWGQGTSVTVSS VL: DVQITQSPSYLAASPGETITINCRATKSISKYLAWYQEQPGKTNNLLIYSGSTLQSGIPSRFSGSGSGTDFTLTISSLEPEDFAMYYCQQHNEYPYTFGSGTKLEIK |  |  |  | EC50 ([1]; immunoconjugates): 0.033 µg/mL; EC50 ([2]; immunoconjugates): 0.119 µg/mL; EC50 ([3]; immunoconjugates): 0.764 µg/mL
